This is an account of results in patent US11332459B2 (TEIJIN PHARMA LIMITED, priority 2017, dated 2022).

This test deals with T1, human TRPC6 (Homo sapiens, UniProt Q9Y210).
T1 construct: expressed in transfected cells
T1 sequence (Q9Y210 1-931): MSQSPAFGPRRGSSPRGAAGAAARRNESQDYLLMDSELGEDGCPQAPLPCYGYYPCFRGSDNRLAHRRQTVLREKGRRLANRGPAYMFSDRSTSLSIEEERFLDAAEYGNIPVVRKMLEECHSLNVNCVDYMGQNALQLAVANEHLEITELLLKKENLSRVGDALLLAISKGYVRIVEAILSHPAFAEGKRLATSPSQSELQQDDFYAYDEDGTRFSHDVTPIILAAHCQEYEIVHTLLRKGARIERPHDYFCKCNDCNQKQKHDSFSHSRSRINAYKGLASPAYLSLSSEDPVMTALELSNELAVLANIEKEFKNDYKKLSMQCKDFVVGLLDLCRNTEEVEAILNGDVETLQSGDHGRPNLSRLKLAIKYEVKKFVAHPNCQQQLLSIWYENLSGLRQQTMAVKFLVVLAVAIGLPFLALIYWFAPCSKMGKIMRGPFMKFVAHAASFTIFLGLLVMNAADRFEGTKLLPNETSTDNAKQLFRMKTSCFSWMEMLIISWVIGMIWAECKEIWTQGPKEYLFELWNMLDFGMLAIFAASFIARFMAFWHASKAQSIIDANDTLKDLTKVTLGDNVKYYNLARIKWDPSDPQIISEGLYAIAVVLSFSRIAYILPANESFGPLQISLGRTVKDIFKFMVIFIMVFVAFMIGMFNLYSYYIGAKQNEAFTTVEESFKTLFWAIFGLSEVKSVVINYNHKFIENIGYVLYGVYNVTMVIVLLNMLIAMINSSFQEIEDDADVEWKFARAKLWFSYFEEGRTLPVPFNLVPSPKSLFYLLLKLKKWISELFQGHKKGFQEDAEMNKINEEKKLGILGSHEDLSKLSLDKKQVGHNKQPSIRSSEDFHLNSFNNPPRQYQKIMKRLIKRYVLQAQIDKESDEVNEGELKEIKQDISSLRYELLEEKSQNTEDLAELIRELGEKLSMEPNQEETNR
The test is described as follows: TRPC6 calcium flux assay (FLIPR, OAG-stimulated calcium influx). As to conditions: HEK293 cells stably transfected with human TRPC6, read-out: hTRPC6 Potency. The test is classed as cell-based. The gist of the method: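 IC50 derived by plotting background-corrected peak fluorescence (180 s window, normalized to OAG-triggered signal vs buffer) against dose. Stable human TRPC6 HEK293 line was dye-loaded, exposed to compound 25 min, then challenged with 50 uM final OAG in 2 mM Ca2+ HEPES buffer pH 7.2, 0.5% DMSO.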
With `N[C@@H]1CN(c2nc3cc(F)c(F)cc3n2CC(=O)N(CCO)Cc2cccnc2)CC[C@H]1F` [Example 655, 2-(2-((3R,4R)-3-amino-4-fluoropiperidin-1-yl)-5,6-difluoro-1H-benzo[d]imidazol-1-yl)-N-(2-hydroxyethyl)-N-(pyridin-3-ylmethyl)acetamide], the IC50 was > 3750 nM.
On to `N#CCCN(C(=O)Cn1c(N2CC[C@@H](F)[C@H](N)C2)nc2cc(F)c(F)cc21)C1CCOCC1` [Example 656], for which the IC50 was > 3750 nM.
For `CN(C)C(=O)C1CCCN(C(=O)Cn2c(N3CC[C@@H](F)[C@H](N)C3)nc3cc(F)c(F)cc32)C1` (stereo partly drawn) [Example 657, 1-(2-(2-((3R,4R)-3-amino-4-fluoropiperidin-1-yl)-5,6-difluoro-1H-benzo[d]imidazol-1-yl)acetyl)-N,N-dimethylpiperidine-3-carboxamide] the value was > 3750 nM; for `COCC1(C#N)CCN(C(=O)Cn2c(N3CC[C@@H](F)[C@H](N)C3)nc3cc(F)c(F)cc32)CC1` [Example 658, 1-(2-(2-((3R,4R)-3-amino-4-fluoropiperidin-1-yl)-5,6-difluoro-1H-benzo[d]imidazol-1-yl)acetyl)-4-(methoxymethyl)piperidine-4-carbonitrile], > 3750 nM; for `N[C@@H]1CN(c2nc3cc(F)c(F)cc3n2CC(=O)N2CCN3C(=O)OCC3C2)CC[C@H]1F` (stereo partly drawn) [Example 659, 7-(2-(2-((3R,4R)-3-amino-4-fluoropiperidin-1-yl)-5,6-difluoro-1H-benzo[d]imidazol-1-yl)acetyl)tetrahydro-1H-oxazolo[3,4-a]pyrazin-3(5H)-one], > 3750 nM.
For `N[C@@H]1CN(c2nc3ccc(F)cc3n2CC(=O)Nc2nccs2)CC[C@H]1F` [Example 660, 2-(2-((3R,4R)-3-amino-4-fluoropiperidin-1-yl)-6-fluoro-1H-benzo[d]imidazol-1-yl)-N-(thiazol-2-yl)acetamide] the value was 5.04 nM.
Regarding `N[C@@H]1CN(c2nc3ccc(F)cc3n2CC(=O)NCC(F)(F)F)CC[C@H]1F` [Example 661, 2-(2-((3R,4R)-3-amino-4-fluoropiperidin-1-yl)-6-fluoro-1H-benzo[d]imidazol-1-yl)-N-(2,2,2-trifluoroethyl)acetamide], the IC50 came out at 279 nM.
To `N[C@@H]1CN(c2nc3ccc(F)cc3n2CC(=O)N(CC(F)(F)F)C2CC2)CC[C@H]1F` [Example 662, 2-(2-((3R,4R)-3-amino-4-fluoropiperidin-1-yl)-6-fluoro-1H-benzo[d]imidazol-1-yl)-N-cyclopropyl-N-(2,2,2-trifluoroethyl)acetamide] belongs 283 nM; to `COCCN(C)C(=O)Cn1c(N2CC[C@@H](F)[C@H](N)C2)nc2ccc(F)cc21` [Example 663, 2-(2-((3R,4R)-3-amino-4-fluoropiperidin-1-yl)-6-fluoro-1H-benzo[d]imidazol-1-yl)-N-(2-methoxyethyl)-N-methylacetamide], 294 nM.
To `CN(C(=O)Cn1c(N2CC[C@@H](F)[C@H](N)C2)nc2ccc(F)cc21)[C@H]1CCOC1` [Example 664, 2-(2-((3R,4R)-3-amino-4-fluoropiperidin-1-yl)-6-fluoro-1H-benzo[d]imidazol-1-yl)-N-methyl-N-((S)-tetrahydrofuran-3-yl)acetamide] belongs 555 nM; to `CN(C(=O)Cn1c(N2CC[C@@H](F)[C@H](N)C2)nc2ccc(F)cc21)[C@@H]1CCOC1` [Example 665, 2-(2-((3R,4R)-3-amino-4-fluoropiperidin-1-yl)-6-fluoro-1H-benzo[d]imidazol-1-yl)-N-methyl-N-((R)-tetrahydrofuran-3-yl)acetamide], 584 nM; to `C[C@H](NC(=O)Cn1c(N2CC[C@@H](F)[C@H](N)C2)nc2ccc(F)cc21)c1ccccn1` [Example 666, 2-(2-((3R,4R)-3-amino-4-fluoropiperidin-1-yl)-6-fluoro-1H-benzo[d]imidazol-1-yl)-N-((S)-1-(pyridin-2-yl)ethyl)acetamide], 687 nM.
To `N[C@@H]1CN(c2nc3ccc(F)cc3n2CC(=O)N(CC(F)(F)F)[C@H]2CCOC2)CC[C@H]1F` [Example 667, 2-(2-((3R,4R)-3-amino-4-fluoropiperidin-1-yl)-6-fluoro-1H-benzo[d]imidazol-1-yl)-N-((S)-tetrahydrofuran-3-yl)-N-(2,2,2-trifluoroethyl)acetamide] belongs 745 nM; to `N[C@@H]1CN(c2nc3ccc(F)cc3n2CC(=O)NC2CCC2)CC[C@H]1F` [Example 668, 2-(2-((3R,4R)-3-amino-4-fluoropiperidin-1-yl)-6-fluoro-1H-benzo[d]imidazol-1-yl)-N-cyclobutylacetamide], 778 nM; to `C[C@@H](CC#N)NC(=O)Cn1c(N2CC[C@@H](F)[C@H](N)C2)nc2ccc(F)cc21` [Example 669, 2-(2-((3R,4R)-3-amino-4-fluoropiperidin-1-yl)-6-fluoro-1H-benzo[d]imidazol-1-yl)-N-((S)-1-cyanopropan-2-yl)acetamide], 901 nM.
`C[C@H](CC#N)NC(=O)Cn1c(N2CC[C@@H](F)[C@H](N)C2)nc2ccc(F)cc21` [Example 670, 2-(2-((3R,4R)-3-amino-4-fluoropiperidin-1-yl)-6-fluoro-1H-benzo[d]imidazol-1-yl)-N-((R)-1-cyanopropan-2-yl)acetamide]: the IC50 is 1120 nM.
For `CCN(CCOC)C(=O)Cn1c(N2CC[C@@H](F)[C@H](N)C2)nc2ccc(F)cc21` [Example 671, 2-(2-((3R,4R)-3-amino-4-fluoropiperidin-1-yl)-6-fluoro-1H-benzo[d]imidazol-1-yl)-N-ethyl-N-(2-methoxyethyl)acetamide] the value was 1430 nM.
To `N[C@@H]1CN(c2nc3ccc(F)cc3n2CC(=O)N(CC(F)(F)F)[C@@H]2CCOC2)CC[C@H]1F` [Example 672] belongs 1660 nM; to `N[C@@H]1CN(c2nc3ccc(F)cc3n2CC(=O)NCCC(F)(F)F)CC[C@H]1F` [Example 673, 2-(2-((3R,4R)-3-amino-4-fluoropiperidin-1-yl)-6-fluoro-1H-benzo[d]imidazol-1-yl)-N-(3,3,3-trifluoropropyl)acetamide], > 3750 nM.
As for `C[C@@H](NC(=O)Cn1c(N2CC[C@@H](F)[C@H](N)C2)nc2ccc(F)cc21)c1ccccn1` [Example 674, 2-(2-((3R,4R)-3-amino-4-fluoropiperidin-1-yl)-6-fluoro-1H-benzo[d]imidazol-1-yl)-N-((R)-1-(pyridin-2-yl)ethyl)acetamide], the IC50 was > 1750 nM.
To `N[C@@H]1CN(c2nc3ccc(F)cc3n2CC(=O)N[C@H]2CCOC2)CC[C@H]1F` [Example 675, 2-(2-((3R,4R)-3-amino-4-fluoropiperidin-1-yl)-6-fluoro-1H-benzo[d]imidazol-1-yl)-N-((S)-tetrahydrofuran-3-yl)acetamide] belongs > 3750 nM; to `N[C@@H]1CN(c2nc3ccc(F)cc3n2CC(=O)N[C@@H]2CCOC2)CC[C@H]1F` [Example 676, 2-(2-((3R,4R)-3-amino-4-fluoropiperidin-1-yl)-6-fluoro-1H-benzo[d]imidazol-1-yl)-N-((R)-tetrahydrofuran-3-yl)acetamide], > 3750 nM; to `CC1CCN1C(=O)Cn1c(N2CC[C@@H](F)[C@H](N)C2)nc2ccc(F)cc21` (stereo partly drawn) [Example 677, 2-(2-((3R,4R)-3-amino-4-fluoropiperidin-1-yl)-6-fluoro-1H-benzo[d]imidazol-1-yl)-1-(2-methylazetidin-1-yl)ethan-1-one], 88.1 nM.
